From patent US12685735B2 (Foghorn Therapeutics Inc., priority 2020, dated 2026)

Key:
BRG-1 = BRG-1 (Homo sapiens, UniProt P51532); assay: ATPase catalytic activity assay of BRG-1 (ADP-Glo); format: biochemical; settings: ATPase catalytic activity, ADP-Glo; for IC50: read-out: BRG1 IC50 (μM)*; for Emax: read-out: BRG1 Max % Inhibition
Procedure, shortened: (§1)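 Once the enzyme reaction finished, residual ATP is removed with ADP-Glo Reagent over 40 minutes at room temperature. Kinase Detection Reagent then converts product ADP into ATP during a 60-minute room-temperature incubation, and the luciferase signal is read.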

BRM = BRM (Homo sapiens, UniProt P51531); assay: ATPase catalytic activity assay of BRM (ADP-Glo); format: biochemical; settings: for IC50: read-out: BRM IC50 (μM)*
Procedure, shortened: as §1

BRM, sequence (P51531 whole entry): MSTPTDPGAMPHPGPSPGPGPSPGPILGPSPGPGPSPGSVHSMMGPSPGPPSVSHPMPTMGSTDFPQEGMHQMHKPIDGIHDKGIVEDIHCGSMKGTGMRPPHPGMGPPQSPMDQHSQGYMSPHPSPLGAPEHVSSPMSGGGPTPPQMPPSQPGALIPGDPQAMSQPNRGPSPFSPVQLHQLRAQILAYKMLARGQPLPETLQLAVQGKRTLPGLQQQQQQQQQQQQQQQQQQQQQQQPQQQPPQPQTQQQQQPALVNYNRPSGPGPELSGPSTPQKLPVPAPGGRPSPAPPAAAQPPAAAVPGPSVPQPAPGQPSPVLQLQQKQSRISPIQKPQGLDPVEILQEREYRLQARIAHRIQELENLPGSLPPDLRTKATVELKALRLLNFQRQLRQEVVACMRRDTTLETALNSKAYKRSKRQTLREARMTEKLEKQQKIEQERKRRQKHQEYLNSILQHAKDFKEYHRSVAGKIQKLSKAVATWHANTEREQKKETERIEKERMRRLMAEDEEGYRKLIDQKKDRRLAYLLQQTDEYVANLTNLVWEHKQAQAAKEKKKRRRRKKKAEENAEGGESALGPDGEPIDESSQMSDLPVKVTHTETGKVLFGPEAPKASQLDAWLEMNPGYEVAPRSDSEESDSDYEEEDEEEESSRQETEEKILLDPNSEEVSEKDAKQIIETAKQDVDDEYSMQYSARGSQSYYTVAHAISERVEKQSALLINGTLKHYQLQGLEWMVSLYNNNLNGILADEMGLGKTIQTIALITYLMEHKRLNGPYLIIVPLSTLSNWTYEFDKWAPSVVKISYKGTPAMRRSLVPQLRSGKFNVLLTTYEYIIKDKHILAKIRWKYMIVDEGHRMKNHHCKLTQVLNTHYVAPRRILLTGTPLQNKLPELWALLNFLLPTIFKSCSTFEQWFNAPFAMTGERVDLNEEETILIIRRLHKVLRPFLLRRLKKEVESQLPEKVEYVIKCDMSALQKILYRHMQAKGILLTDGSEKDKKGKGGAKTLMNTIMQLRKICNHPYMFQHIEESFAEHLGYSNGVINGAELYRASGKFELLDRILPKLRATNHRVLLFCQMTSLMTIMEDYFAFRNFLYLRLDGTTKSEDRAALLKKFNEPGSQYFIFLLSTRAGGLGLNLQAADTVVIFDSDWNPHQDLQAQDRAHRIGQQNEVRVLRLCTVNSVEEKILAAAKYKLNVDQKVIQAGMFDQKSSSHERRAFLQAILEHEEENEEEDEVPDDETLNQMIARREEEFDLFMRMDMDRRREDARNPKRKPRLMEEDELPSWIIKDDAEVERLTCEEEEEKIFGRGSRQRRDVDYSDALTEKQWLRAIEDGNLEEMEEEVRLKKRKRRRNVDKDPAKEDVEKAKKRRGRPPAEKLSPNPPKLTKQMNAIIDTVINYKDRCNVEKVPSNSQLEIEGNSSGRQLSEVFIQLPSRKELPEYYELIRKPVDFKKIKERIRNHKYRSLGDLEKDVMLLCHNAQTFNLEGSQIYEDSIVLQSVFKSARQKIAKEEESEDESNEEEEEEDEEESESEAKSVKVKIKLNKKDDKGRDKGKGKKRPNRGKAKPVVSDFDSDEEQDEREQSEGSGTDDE
BRG-1, sequence (P51532 whole entry): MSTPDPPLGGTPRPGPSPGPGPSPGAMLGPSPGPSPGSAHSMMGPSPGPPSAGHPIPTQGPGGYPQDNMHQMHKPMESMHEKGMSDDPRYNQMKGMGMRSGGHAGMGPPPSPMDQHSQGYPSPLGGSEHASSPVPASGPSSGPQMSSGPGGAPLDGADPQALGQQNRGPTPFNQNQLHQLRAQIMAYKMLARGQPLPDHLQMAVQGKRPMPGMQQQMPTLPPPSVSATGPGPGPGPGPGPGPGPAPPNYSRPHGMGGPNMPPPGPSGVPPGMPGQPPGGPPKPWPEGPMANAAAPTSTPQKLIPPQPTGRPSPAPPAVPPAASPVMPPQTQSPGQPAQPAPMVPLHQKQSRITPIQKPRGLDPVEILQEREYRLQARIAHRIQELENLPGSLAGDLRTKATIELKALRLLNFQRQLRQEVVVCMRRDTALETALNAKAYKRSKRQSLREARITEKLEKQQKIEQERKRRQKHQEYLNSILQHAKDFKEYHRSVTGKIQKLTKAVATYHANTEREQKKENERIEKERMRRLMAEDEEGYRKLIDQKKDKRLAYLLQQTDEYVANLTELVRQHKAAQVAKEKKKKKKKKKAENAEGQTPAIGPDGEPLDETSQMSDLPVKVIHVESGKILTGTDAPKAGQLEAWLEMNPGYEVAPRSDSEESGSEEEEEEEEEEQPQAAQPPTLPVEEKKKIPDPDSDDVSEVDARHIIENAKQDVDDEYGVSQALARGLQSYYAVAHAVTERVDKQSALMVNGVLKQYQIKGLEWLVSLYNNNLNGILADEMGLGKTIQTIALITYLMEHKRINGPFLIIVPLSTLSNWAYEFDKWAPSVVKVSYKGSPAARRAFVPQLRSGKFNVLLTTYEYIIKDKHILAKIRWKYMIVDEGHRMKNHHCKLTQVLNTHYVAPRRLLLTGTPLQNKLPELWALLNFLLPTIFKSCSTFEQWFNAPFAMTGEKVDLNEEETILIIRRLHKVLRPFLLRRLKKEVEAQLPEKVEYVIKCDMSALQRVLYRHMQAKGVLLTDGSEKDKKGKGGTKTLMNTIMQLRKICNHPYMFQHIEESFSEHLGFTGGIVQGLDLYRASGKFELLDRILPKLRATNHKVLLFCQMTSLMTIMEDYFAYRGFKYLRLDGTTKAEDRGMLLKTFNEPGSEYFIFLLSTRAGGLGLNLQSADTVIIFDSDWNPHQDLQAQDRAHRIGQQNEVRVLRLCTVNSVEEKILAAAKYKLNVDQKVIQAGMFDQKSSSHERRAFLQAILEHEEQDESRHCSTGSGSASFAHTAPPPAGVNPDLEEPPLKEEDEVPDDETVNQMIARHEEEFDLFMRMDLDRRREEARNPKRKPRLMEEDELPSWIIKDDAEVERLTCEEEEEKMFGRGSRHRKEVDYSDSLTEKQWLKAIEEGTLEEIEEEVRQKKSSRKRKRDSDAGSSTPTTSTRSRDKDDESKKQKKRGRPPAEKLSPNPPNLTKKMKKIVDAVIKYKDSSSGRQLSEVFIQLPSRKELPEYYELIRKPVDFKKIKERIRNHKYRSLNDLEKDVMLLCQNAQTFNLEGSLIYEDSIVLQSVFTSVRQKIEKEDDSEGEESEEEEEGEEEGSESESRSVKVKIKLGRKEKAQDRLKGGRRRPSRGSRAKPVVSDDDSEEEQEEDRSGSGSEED

Q: `CC(C)S(=O)(=O)c1cccc(C(=O)NCC(=O)Nc2nc(-c3cc(C#N)cc(-c4ccc(CN)cc4)c3)cs2)c1` [Compound 33, N-[2-[[4-[3-[4-(aminomethyl)phenyl]-5-cyano-phenyl]thiazol-2-yl]amino]-2-oxo-ethyl]-3-isopropylsulfonyl-benzamide] was tested. Which IC50 (BRG-1) did it give?
A: > 5 µM

Q: And the Emax (BRG-1)?
A: > 80%

Q: And the “BRM Max % Inhibition” value (BRM)?
A: >70%

Q: What about the IC50 (BRM) of the same compound?
A: > 5 µM

Q: Which results are given for `CC(C)S(=O)(=O)c1cccc(C(=O)NCC(=O)Nc2nc(-c3cccc(-c4cccnc4)c3)cs2)c1` [Compound 39, 3-isopropylsulfonyl-N-[2-oxo-2-[[4-[3-(3-pyridyl)phenyl]thiazol-2-yl]amino]ethyl]benzamide]?
A: IC50 (BRG-1): 1 to 5 µM; Emax (BRG-1): > 90%; BRM Max % Inhibition (BRM): >95%; IC50 (BRM): 0.1 to 1 µM

Q: `CC(C)S(=O)(=O)c1cccc(C(=O)NCC(=O)Nc2nc(-c3cccc(-c4ccnc(CN(C)C)c4)c3)cs2)c1` [Compound 45, N-(2-((4-(3-(2-((dimethylamino)methyl)pyridin-4-yl)phenyl)thiazol-2-yl)amino)-2-oxoethyl)-3-(isopropylsulfonyl)benzamide] was tested. Which IC50 (BRG-1) did it give?
A: 1 to 5 µM

Q: And the “BRM Max % Inhibition” value (BRM)?
A: >95%

Q: What about the IC50 (BRM) of the same compound?
A: < 0.1 µM

Q: `Cc1ccc(C(=O)NCC(=O)Nc2nc(-c3cccc(-c4ccn(C)n4)c3)cs2)cc1S(=O)(=O)C(C)C` [Compound 46, 3-(isopropylsulfonyl)-4-methyl-N-(2-((4-(3-(1-methyl-1H-pyrazol-3-yl)phenyl)thiazol-2-yl)amino)-2-oxoethyl)benzamide] was tested. Which IC50 (BRG-1) did it give?
A: 1 to 5 µM

Q: And the Emax (BRG-1)?
A: > 60%

Q: What about the “BRM Max % Inhibition” value (BRM) of the same compound?
A: >95%

Q: What about the IC50 (BRM) of the same compound?
A: 0.1 to 1 µM

Q: With `CSCC[C@H](NC(=O)c1cccc(C(C)(C)CN)c1)C(=O)Nc1nc(-c2cccc(-c3ccncc3)c2)cs1` [Compound 48, (S)-3-(1-amino-2-methylpropan-2-yl)-N-(4-(methylthio)-1-oxo-1-((4-(3-(pyridin-4-yl)phenyl)thiazol-2-yl)amino)butan-2-yl)benzamide] as the compound, how does the IC50 (BRG-1) read?
A: 0.1 to 1 µM

Q: And the Emax (BRG-1)?
A: > 80%

Q: What about the “BRM Max % Inhibition” value (BRM) of the same compound?
A: >95%

Q: And the IC50 (BRM)?
A: 0.1 to 1 µM

Q: Which results are given for `COc1cc(-c2cccc(-c3csc(NC(=O)CNC(=O)c4cccc(C(C)(C)CN)c4)n3)c2)ccn1` [Compound 49, 3-(1-amino-2-methylpropan-2-yl)-N-(2-((4-(3-(2-methoxypyridin-4-yl)phenyl)thiazol-2-yl)amino)-2-oxoethyl)benzamide]?
A: IC50 (BRG-1): > 5 µM; Emax (BRG-1): > 60%; BRM Max % Inhibition (BRM): >80%; IC50 (BRM): 0.1 to 1 µM

Q: What does the source list for `CC(C)(CN)c1cccc(C(=O)NCC(=O)Nc2nc(-c3cccc(-c4cc(C#N)cc(C#N)c4)c3)cs2)c1` [Compound 50, 3-(1-amino-2-methylpropan-2-yl)-N-(2-((4-(3′,5′-dicyano-[1,1′-biphenyl]-3-yl)thiazol-2-yl)amino)-2-oxoethyl)benzamide]?
A: IC50 (BRG-1): 1 to 5 µM; Emax (BRG-1): > 70%; BRM Max % Inhibition (BRM): >90%; IC50 (BRM): 0.1 to 1 µM

Q: Which IC50 (BRG-1) does the source give for `CC(C)(CN)c1cccc(C(=O)NCC(=O)Nc2nc(-c3cccc(-c4cc(Cl)cc(Cl)c4)c3)cs2)c1` [Compound 51, 3-(1-amino-2-methylpropan-2-yl)-N-(2-((4-(3′,5′-dichloro-[1,1′-biphenyl]-3-yl)thiazol-2-yl)amino)-2-oxoethyl)benzamide] here?
A: > 5 µM

Q: What about the Emax (BRG-1) of the same compound?
A: > 50%

Q: And the “BRM Max % Inhibition” value (BRM)?
A: >80%

Q: And the IC50 (BRM)?
A: 0.1 to 1 µM

Q: For `CC(C)(CN)c1cccc(C(=O)NCC(=O)Nc2nc(-c3cccc(-c4cc(C#N)cc(CO)c4)c3)cs2)c1` [Compound 52, 3-(1-amino-2-methylpropan-2-yl)-N-(2-((4-(3′-cyano-5′-(hydroxymethyl)-[1,1′-biphenyl]-3-yl)thiazol-2-yl)amino)-2-oxoethyl)benzamide], which IC50 (BRG-1) is on record?
A: 1 to 5 µM

Q: And the Emax (BRG-1)?
A: > 70%

Q: And the “BRM Max % Inhibition” value (BRM)?
A: >80%

Q: What about the IC50 (BRM) of the same compound?
A: 0.1 to 1 µM

Q: Which results are given for `CC(C)(CN)c1cccc(C(=O)NCC(=O)Nc2nc(-c3cccc(-c4cc(CO)cc(C(F)(F)F)c4)c3)cs2)c1` [Compound 53, 3-(1-amino-2-methylpropan-2-yl)-N-(2-((4-(3′-(hydroxymethyl)-5′-(trifluoromethyl)-[1,1′-biphenyl]-3-yl)thiazol-2-yl)amino)-2-oxoethyl)benzamide]?
A: IC50 (BRG-1): 1 to 5 µM; Emax (BRG-1): > 70%; BRM Max % Inhibition (BRM): >90%; IC50 (BRM): 0.1 to 1 µM

Q: With `CC(C)(CN)c1cccc(C(=O)NCC(=O)Nc2nc(-c3cccc(-c4cccc(Cl)c4)c3)cs2)c1` [Compound 54, 3-(1-amino-2-methylpropan-2-yl)-N-(2-((4-(3′-chloro-[1,1′-biphenyl]-3-yl)thiazol-2-yl)amino)-2-oxoethyl)benzamide] as the compound, how does the IC50 (BRG-1) read?
A: 1 to 5 µM

Q: What about the Emax (BRG-1) of the same compound?
A: > 50%

Q: What about the “BRM Max % Inhibition” value (BRM) of the same compound?
A: >80%

Q: What about the IC50 (BRM) of the same compound?
A: 1 to 5 µM

Q: With `CC(C)(CN)c1cccc(C(=O)NCC(=O)Nc2nc(-c3cccc(-c4cccc(C#N)c4)c3)cs2)c1` [Compound 55, 3-(1-amino-2-methylpropan-2-yl)-N-(2-((4-(3′-cyano-[1,1′-biphenyl]-3-yl)thiazol-2-yl)amino)-2-oxoethyl)benzamide] as the compound, how does the IC50 (BRG-1) read?
A: > 5 µM

Q: And the Emax (BRG-1)?
A: > 60%

Q: What about the “BRM Max % Inhibition” value (BRM) of the same compound?
A: >90%

Q: What about the IC50 (BRM) of the same compound?
A: 0.1 to 1 µM

Q: With `CC(=O)N(C)c1cc(-c2cccc(-c3csc(NC(=O)CNC(=O)c4cccc(C(C)(C)CN)c4)n3)c2)ccn1` [Compound 56, 3-(1-amino-2-methylpropan-2-yl)-N-(2-((4-(3-(2-(N-methylacetamido)pyridin-4-yl)phenyl)thiazol-2-yl)amino)-2-oxoethyl)benzamide] as the compound, how does the IC50 (BRG-1) read?
A: 1 to 5 µM

Q: And the Emax (BRG-1)?
A: > 70%

Q: And the “BRM Max % Inhibition” value (BRM)?
A: >90%

Q: What about the IC50 (BRM) of the same compound?
A: 0.1 to 1 µM

Q: How did the IC50 (BRG-1) turn out when `CNc1cc(-c2cccc(-c3csc(NC(=O)CNC(=O)c4cccc(C(C)(C)CN)c4)n3)c2)ccn1` [Compound 57, 3-(1-amino-2-methylpropan-2-yl)-N-(2-((4-(3-(2-(methylamino)pyridin-4-yl)phenyl)thiazol-2-yl)amino)-2-oxoethyl)benzamide] was run?
A: 0.1 to 1 µM

Q: And the Emax (BRG-1)?
A: > 80%

Q: And the “BRM Max % Inhibition” value (BRM)?
A: >95%

Q: And the IC50 (BRM)?
A: < 0.1 µM

Q: Which results are given for `CC(C)(CN)c1cccc(C(=O)NCC(=O)Nc2nc(-c3cccc(-c4ccnc(C(F)(F)F)c4)c3)cs2)c1` [Compound 58, 3-(1-amino-2-methylpropan-2-yl)-N-(2-oxo-2-((4-(3-(2-(trifluoromethyl)pyridin-4-yl)phenyl)thiazol-2-yl)amino)ethyl)benzamide]?
A: IC50 (BRG-1): 1 to 5 µM; Emax (BRG-1): > 60%; BRM Max % Inhibition (BRM): >80%; IC50 (BRM): 0.1 to 1 µM

Q: With `CC(C)(CN)c1cccc(C(=O)NCC(=O)Nc2nc(-c3cccc(-c4ccnc(N)c4)c3)cs2)c1` [Compound 59, 3-(1-amino-2-methylpropan-2-yl)-N-(2-((4-(3-(2-aminopyridin-4-yl)phenyl)thiazol-2-yl)amino)-2-oxoethyl)benzamide] as the compound, how does the IC50 (BRG-1) read?
A: 0.1 to 1 µM

Q: What about the Emax (BRG-1) of the same compound?
A: > 80%

Q: What about the “BRM Max % Inhibition” value (BRM) of the same compound?
A: >95%

Q: And the IC50 (BRM)?
A: < 0.1 µM

Q: With `CC(C)(CN)c1cccc(C(=O)NCC(=O)Nc2nc(-c3cccc(-c4ccnc(CO)c4)c3)cs2)c1` [Compound 60, 3-(1-amino-2-methylpropan-2-yl)-N-(2-((4-(3-(2-(hydroxymethyl)pyridin-4-yl)phenyl)thiazol-2-yl)amino)-2-oxoethyl)benzamide] as the compound, how does the IC50 (BRG-1) read?
A: 0.1 to 1 µM

Q: What about the Emax (BRG-1) of the same compound?
A: > 80%

Q: What about the “BRM Max % Inhibition” value (BRM) of the same compound?
A: >95%

Q: And the IC50 (BRM)?
A: < 0.1 µM

Q: `CN(C)Cc1cc(-c2cccc(-c3csc(NC(=O)CNC(=O)c4cccc(C(C)(C)CN)c4)n3)c2)ccn1` [Compound 61, 3-(1-amino-2-methylpropan-2-yl)-N-(2-((4-(3-(2-((dimethylamino)methyl)pyridin-4-yl)phenyl)thiazol-2-yl)amino)-2-oxoethyl)benzamide] was tested. Which IC50 (BRG-1) did it give?
A: 1 to 5 µM

Q: And the Emax (BRG-1)?
A: > 60%

Q: And the “BRM Max % Inhibition” value (BRM)?
A: >90%

Q: What about the IC50 (BRM) of the same compound?
A: 0.1 to 1 µM

Q: Which IC50 (BRG-1) does the source give for `CC(C)(CN)c1cccc(C(=O)NCC(=O)Nc2nc(-c3cccc(CO[C@H]4CC[C@H](O)CC4)c3)cs2)c1` [Compound 62, 3-(1-amino-2-methylpropan-2-yl)-N-(2-((4-(3-((((1R,4R)-4-hydroxycyclohexyl)oxy)methyl)phenyl)thiazol-2-yl)amino)-2-oxoethyl)benzamide] here?
A: > 5 µM

Q: And the Emax (BRG-1)?
A: > 40%

Q: What about the “BRM Max % Inhibition” value (BRM) of the same compound?
A: >80%

Q: And the IC50 (BRM)?
A: 1 to 5 µM

Q: What does the source list for `Cc1cc(C(=O)NCC(=O)Nc2nc(-c3cccc(-c4ccncc4)c3)cs2)cc(C(C)(C)CN)c1` [Compound 63, 3-(1-amino-2-methylpropan-2-yl)-5-methyl-N-(2-oxo-2-((4-(3-(pyridin-4-yl)phenyl)thiazol-2-yl)amino)ethyl)benzamide]?
A: IC50 (BRG-1): > 5 µM; Emax (BRG-1): > 60%; BRM Max % Inhibition (BRM): >80%; IC50 (BRM): 1 to 5 µM

Q: For `CC(C)(CN)c1cccc(C(=O)NCC(=O)Nc2nc(-c3cccc(-c4ccncc4)c3)cs2)c1` [Compound 64, 3-(1-amino-2-methylpropan-2-yl)-N-(2-oxo-2-((4-(3-(pyridin-4-yl)phenyl)thiazol-2-yl)amino)ethyl)benzamide], which IC50 (BRG-1) is on record?
A: 1 to 5 µM

Q: And the Emax (BRG-1)?
A: > 80%

Q: And the “BRM Max % Inhibition” value (BRM)?
A: >95%

Q: And the IC50 (BRM)?
A: 0.1 to 1 µM

Q: `C[C@H](NC(=O)c1cccc(C(C)(C)CN)c1)C(=O)Nc1nc(-c2cccc(-c3ccncc3)c2)cs1` [Compound 65, (S)-3-(1-amino-2-methylpropan-2-yl)-N-(1-oxo-1-((4-(3-(pyridin-4-yl)phenyl)thiazol-2-yl)amino)propan-2-yl)benzamide] was tested. Which IC50 (BRG-1) did it give?
A: 0.1 to 1 µM

Q: And the Emax (BRG-1)?
A: > 95%

Q: And the “BRM Max % Inhibition” value (BRM)?
A: >90%

Q: And the IC50 (BRM)?
A: 0.1 to 1 µM

Q: Which IC50 (BRG-1) does the source give for `Cc1cc(-c2cccc(-c3csc(NC(=O)CNC(=O)c4cccc(C(C)(C)CN)c4)n3)c2)cc(C)n1` [Compound 66, 3-(1-amino-2-methylpropan-2-yl)-N-(2-((4-(3-(2,6-dimethylpyridin-4-yl)phenyl)thiazol-2-yl)amino)-2-oxoethyl)benzamide] here?
A: 0.1 to 1 µM

Q: And the Emax (BRG-1)?
A: > 90%

Q: And the “BRM Max % Inhibition” value (BRM)?
A: >95%

Q: And the IC50 (BRM)?
A: < 0.1 µM

Q: `Cn1ccc2ccc(-c3csc(NC(=O)CNC(=O)c4cccc(C(C)(C)CN)c4)n3)cc2c1=O` [Compound 67, 3-(1-amino-2-methylpropan-2-yl)-N-(2-((4-(2-methyl-1-oxo-1,2-dihydroisoquinolin-7-yl)thiazol-2-yl)amino)-2-oxoethyl)benzamide] was tested. Which IC50 (BRG-1) did it give?
A: 1 to 5 µM

Q: And the Emax (BRG-1)?
A: > 40%

Q: And the “BRM Max % Inhibition” value (BRM)?
A: >70%

Q: And the IC50 (BRM)?
A: 1 to 5 µM
